Measured values as given in patent US9388199B2, “Pyrrolidine derivatives and their use as complement pathway modulators” (priority 2012, dated 2016).

Each molecule was assayed against Recombinant human factor D (Homo sapiens (Human), UniProt P00746) (assay: Human Complement Factor D Assay: Method 1). Details: 10 nM factor D, substrate Z-Lys-thiobenzyl, fluorescence readout, read-out: IC50 (μM), Factor D inhibition.
Format: biochemical
Description: Human Complement Factor D Assay: Method 1
Recombinant human factor D (expressed in E. coli and purified using standard methods) at 10 nM concentration is incubated with test compound at various concentrations for 1 hour at room temperature in 0.1 M Hepes buffer, pH 7.5, containing 1 mM MgCl2, 1 M NaCl and 0.05% CHAPS. A synthetic substrate Z-Lys-thiobenzyl and 2,4-dinitrobenzenesulfonyl-fluoresceine are added to final concentrations of 200 μM and 25 μM, respectively. The increase in fluorescence is recorded at excitation of 485 nm and emission at 535 nm in a microplate spectrofluorimeter. IC50 values are calculated from percentage of inhibition of complement factor D-activity as a function of test compound concentration.

Chain of Recombinant human factor D (P00746 26-253): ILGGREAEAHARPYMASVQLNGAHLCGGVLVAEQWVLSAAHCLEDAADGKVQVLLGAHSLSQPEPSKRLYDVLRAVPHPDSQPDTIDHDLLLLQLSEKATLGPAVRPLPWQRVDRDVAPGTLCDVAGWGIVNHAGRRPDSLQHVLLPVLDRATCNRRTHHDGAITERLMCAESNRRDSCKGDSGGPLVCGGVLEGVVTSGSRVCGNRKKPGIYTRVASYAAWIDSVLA

| Structure (SMILES) | IC50 [µM] |
| --- | --- |
| CO[C@H]1[C@@H](C(=O)NCCC(C)(C)C)N(C(=O)Cn2nc(C(C)=O)c3ccccc32)C[C@@H]1F [Example 5, (2S,3S,4S)-1-[2-(3-Acetyl-indazol-1-yl)-acetyl]-4-fluoro-3-methoxy-pyrrolidine-2-carboxylic acid (3,3-dimethyl-butyl)-amide] | 0.088 |
| C[C@H](CC(C)(C)C)NC(=O)[C@@H]1C[C@H]2C[C@H]2N1C(=O)Cn1nc(C(N)=O)c2ccccc21 [Example 36, 1-{2-Oxo-2-[(1R,3S,5R)-3-((R)-1,3,3-trimethyl-butylcarbamoyl)-2-aza-bicyclo[3.1.0]hex-2-yl]-ethyl}-1H-indazole-3-carboxylic acid amide] | 0.113 |
| NC(=O)n1cc(NC(=O)N2[C@@H]3C[C@@H]3C[C@H]2C(=O)NCCCCOC(F)(F)F)c2ccccc21 [Example 26, (1R,3S,5R)-2-Aza-bicyclo [3.1.0]hexane-2,3-dicarboxylic acid 2-[(1-carbamoyl-1H-indol-3-yl)-amide] 3-[(4-trifluoromethoxy-butyl)-amide]] | 1.39 |
| CC(C)(C)C[C@H](CO)NC(=O)[C@@H]1C[C@H]2C[C@H]2N1C(=O)Cn1nc(C(N)=O)c2ccccc21 [Example 42, 1-{2-[(1R,3S,5R)-3-((R)-1-Hydroxymethyl-3,3-dimethyl-butylcarbamoyl)-2-aza-bicyclo[3.1.0]hex-2-yl]-2-oxo-ethyl}-1H-indazole-3-carboxylic acid amide] | 5.36 |
| CO[C@@H]1CN(C(=O)Cn2nc(C(N)=O)c3ccccc32)[C@H](C(=O)NCCC(C)(C)C)[C@H]1F [Example 11, 1-{2-[(2R,3R,4R)-2-(3,3-Dimethyl-butylcarbamoyl)-3-fluoro-4-methoxy-pyrrolidin-1-yl]-2-oxo-ethyl}-1H-indazole-3-carboxylic acid amide] | 14.6 |
| NC(=O)n1cc(NC(=O)N2[C@@H]3C[C@@H]3C[C@H]2C(=O)NCCCOC(F)(F)F)c2ccccc21 [Example 25, (1R,3S,5R)-2-Aza-bicyclo [3.1.0]hexane-2,3-dicarboxylic acid 2-[(1-carbamoyl-1H-indol-3-yl)-amide] 3-[(3-trifluoromethoxy-propyl)-amide]] | 0.912 |
| CCNC(=O)[C@@H]1C[C@H]2C[C@H]2N1C(=O)Cn1nc(C(N)=O)c2cc(OCc3ncccn3)ccc21 [Example 18, 1-[2-((1R,3S,5R)-3-Ethylcarbamoyl-2-aza-bicyclo[3.1.0]hex-2-yl)-2-oxo-ethyl]-5-(pyrimidin-2-ylmethoxy)-1H-indazole-3-carboxylic acid amide] | 2.89 |
| COC[C@H](CC(C)(C)C)NC(=O)[C@@H]1C[C@H]2C[C@H]2N1C(=O)Cn1nc(C(N)=O)c2ccccc21 [Example 37, 1-{2-[(1R,3S,5R)-3-((S)-1-Methoxymethyl-3,3-dimethyl-butylcarbamoyl)-2-aza-bicyclo[3.1.0]hex-2-yl]-2-oxo-ethyl}-1H-indazole-3-carboxylic acid amide] | 0.443 |
| CCNC(=O)[C@@H]1C[C@H]2C[C@H]2N1C(=O)Cn1nc(C(C)=O)c2cc(OCc3ncccn3)ccc21 [Example 13, (1R,3S,5R)-2-{2-[3-Acetyl-5-(pyrimidin-2-ylmethoxy)-indazol-1-yl]-acetyl}-2-aza-bicyclo[3.1.0]hexane-3-carboxylic acid ethylamide] | 0.504 |
| NC(=O)c1nn(CC(=O)N2[C@@H]3C[C@@H]3C[C@H]2C(=O)NCC(F)F)c2ccccc12 [Example 32, 1-{2-[(1R,3S,5R)-3-(2,2-Difluoro-ethylcarbamoyl)-2-aza-bicyclo[3.1.0]hex-2-yl]-2-oxo-ethyl}-1H-indazole-3-carboxylic acid amide] | 0.874 |
| CC(=O)c1nn(CC(=O)N2[C@@H]3C[C@@H]3C[C@H]2C(=O)NCCCOC(F)(F)F)c2ccccc12 [Example 2, (1R,3S,5R)-2-[2-(3-Acetyl-indazol-1-yl)-acetyl]-2-aza-bicyclo[3.1.0]hexane-3-carboxylic acid (3-trifluoromethoxy-propyl)-amide] | 0.605 |
| CO[C@H]1[C@@H](C(=O)NCCC(C)(C)C)N(C(=O)Cn2nc(C(N)=O)c3ccccc32)C[C@@H]1F [Example 3, 1-{2-[(2S,3S,4S)-2-(3,3-Dimethyl-butylcarbamoyl)-4-fluoro-3-methoxy-pyrrolidin-1-yl]-2-oxo-ethyl}-1H-indazole-3-carboxylic acid amide] | 0.103 |
| CC(=O)c1nn(CC(=O)N2[C@@H]3C[C@@H]3C[C@H]2C(=O)NCCC(C)(C)C)c2ccc(OCc3ncccn3)cc12 [Example 8, (1R,3S,5R)-2-{2-[3-Acetyl-5-(pyrimidin-2-ylmethoxy)-indazol-1-yl]-acetyl}-2-aza-bicyclo[3.1.0]hexane-3-carboxylic acid (3,3-dimethyl-butyl)-amide] | 0.009 |
| CC(=O)c1nn(CC(=O)N2[C@@H]3C[C@@H]3C[C@H]2C(=O)NCCOC(F)(F)C(F)(F)F)c2ccc(OCc3ncccn3)cc12 [Example 16, (1R,3S,5R)-2-{2-[3-Acetyl-5-(pyrimidin-2-ylmethoxy)-indazol-1-yl]-acetyl}-2-aza-bicyclo[3.1.0]hexane-3-carboxylic acid (2-penta fluoroethyloxy-ethyl)-amide] | 0.152 |
| CC(=O)c1nn(CC(=O)N2[C@@H]3C[C@@H]3C[C@H]2C(=O)NCCC(C)C)c2ncccc12 [Example 30, (1R,3S,5R)-2-[2-(3-Acetyl-pyrazolo[3,4-b]pyridin-1-yl)-acetyl]-2-aza-bicyclo[3.1.0] hexane-3-carboxylic acid (3-methyl-butyl)-amide] | 0.324 |
| CC(=O)c1nn(CC(=O)N2[C@@H]3C[C@@H]3C[C@H]2C(=O)NCC(O)C(F)(F)F)c2ncccc12 (stereo partly drawn) [Example 40, (1R,3S,5R)-2-[2-(3-Acetyl-pyrazolo[3,4-b]pyridin-1-yl)-acetyl]-2-aza-bicyclo [3.1.0]hexane-3-carboxylic acid (3,3,3-trifluoro-2-hydroxy-propyl)-amide] | 10.8 |
| CC(=O)c1nn(CC(=O)N2[C@@H]3C[C@@H]3C[C@H]2C(=O)NCC[Si](C)(C)C)c2cnccc12 [Example 43, (1R,3S,5R)-2-[2-(3-Acetyl-pyrazolo[3,4-c]pyridin-1-yl)-acetyl]-2-aza-bicyclo[3.1.0]hexane-3-carboxylic acid (2-trimethylsilanyl-ethyl)-amide] | 0.323 |
| CC(=O)c1nn(CC(=O)N2[C@@H]3C[C@@H]3C[C@H]2C(=O)NCCC(C)(C)C)c2ncccc12 [Example 29, (1R,3S,5R)-2-[2-(3-Acetyl-pyrazolo[3,4-b]pyridin-1-yl)-acetyl]-2-aza-bicyclo[3.1.0] hexane-3-carboxylic acid (3,3-dimethyl-butyl)-amide] | 0.227 |
| CC[C@H](C)NC(=O)[C@@H]1C[C@H]2C[C@H]2N1C(=O)Cn1nc(C(C)=O)c2cc(OCc3ncccn3)ccc21 [Example 19, (1R,3S,5R)-2-{2-[3-Acetyl-5-(pyrimidin-2-ylmethoxy)-indazol-1-yl]-acetyl}-2-aza-bicyclo[3.1.0]hexane-3-carboxylic acid ((S)-sec-butyl)-amide] | 0.929 |
| CC(=O)c1nn(CC(=O)N2[C@@H]3C[C@@H]3C[C@H]2C(=O)NC(C)C)c2ccc(OCc3ncccn3)cc12 [Example 20, (1R,3S,5R)-2-{2-[3-Acetyl-5-(pyrimidin-2-ylmethoxy)-indazol-1-yl]-acetyl}-2-aza-bicyclo[3.1.0]hexane-3-carboxylic acid isopropyl amide] | 0.328 |
